ChEMBL document CHEMBL5058645, “Data for DCP probe JNJ-6204” (2022)
Values belong to the compound of their own block, whether it stands above or below them. Activity calls are given as the source filed them. The calls are words filed in the database; no cut-off is given here.

Columns and labels:
[1] = molecular target: 5-hydroxytryptamine receptor 1E (Homo sapiens) (UniProt P28566); conditions: Compound concentration 10.0 uM
[2] = molecular target: Muscarinic acetylcholine receptor M4 (Homo sapiens) (UniProt P08173); conditions: Compound concentration 10.0 uM
[3] = molecular target: 5-hydroxytryptamine receptor 2A (Homo sapiens) (UniProt P28223); conditions: Compound concentration 10.0 uM
D(3) dopamine receptor [4] = molecular target: T1, D(3) dopamine receptor (Homo sapiens, UniProt P35462); conditions: Compound concentration 10.0 uM
T1 sequence (P35462 whole entry): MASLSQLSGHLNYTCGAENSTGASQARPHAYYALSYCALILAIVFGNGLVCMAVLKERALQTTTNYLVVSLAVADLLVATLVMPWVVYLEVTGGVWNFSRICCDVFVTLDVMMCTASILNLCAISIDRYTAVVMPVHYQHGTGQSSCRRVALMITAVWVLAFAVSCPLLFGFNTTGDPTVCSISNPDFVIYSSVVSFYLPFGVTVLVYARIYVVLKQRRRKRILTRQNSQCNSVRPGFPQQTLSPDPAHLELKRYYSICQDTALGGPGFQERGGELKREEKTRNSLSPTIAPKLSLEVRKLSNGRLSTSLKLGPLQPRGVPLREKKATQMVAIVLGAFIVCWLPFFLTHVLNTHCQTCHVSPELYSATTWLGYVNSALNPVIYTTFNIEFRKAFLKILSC

[5] = molecular target: Beta-3 adrenergic receptor (Homo sapiens) (UniProt P13945); conditions: Compound concentration 10.0 uM
[6] = molecular target: Alpha-2C adrenergic receptor (Homo sapiens) (UniProt P18825); conditions: Compound concentration 10.0 uM
[7] = molecular target: Muscarinic acetylcholine receptor M1 (Homo sapiens) (UniProt P11229); conditions: Compound concentration 10.0 uM
[8] = molecular target: Muscarinic acetylcholine receptor M3 (Homo sapiens) (UniProt P20309); conditions: Compound concentration 10.0 uM
Sequence of Muscarinic acetylcholine receptor M3 (Homo sapiens) (P20309 whole entry, looked up): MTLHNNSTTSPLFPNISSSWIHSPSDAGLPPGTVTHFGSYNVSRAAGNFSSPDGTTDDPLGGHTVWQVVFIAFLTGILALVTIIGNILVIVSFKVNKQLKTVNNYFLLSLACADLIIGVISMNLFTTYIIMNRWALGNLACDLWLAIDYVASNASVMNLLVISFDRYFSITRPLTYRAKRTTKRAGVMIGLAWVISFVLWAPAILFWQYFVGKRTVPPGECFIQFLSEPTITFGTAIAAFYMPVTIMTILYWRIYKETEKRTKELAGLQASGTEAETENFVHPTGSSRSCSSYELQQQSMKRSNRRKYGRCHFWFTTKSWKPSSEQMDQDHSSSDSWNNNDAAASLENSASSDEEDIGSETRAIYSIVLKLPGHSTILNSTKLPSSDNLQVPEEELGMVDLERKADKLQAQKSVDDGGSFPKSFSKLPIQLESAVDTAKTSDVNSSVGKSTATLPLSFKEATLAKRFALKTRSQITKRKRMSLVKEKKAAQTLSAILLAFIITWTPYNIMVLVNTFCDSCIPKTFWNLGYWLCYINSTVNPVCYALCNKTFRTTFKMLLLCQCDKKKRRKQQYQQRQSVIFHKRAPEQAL

[9] = molecular target: Muscarinic acetylcholine receptor M2 (Homo sapiens) (UniProt P08172); conditions: Compound concentration 10.0 uM
[10] = molecular target: D(4) dopamine receptor (Homo sapiens) (UniProt P21917); conditions: Compound concentration 10.0 uM
[11] = molecular target: Sigma intracellular receptor 2 (Homo sapiens) (UniProt Q5BJF2); conditions: Compound concentration 10.0 uM
[12] = molecular target: Alpha-2A adrenergic receptor (Homo sapiens) (UniProt P08913); conditions: Compound concentration 10.0 uM
[13] = molecular target: 5-hydroxytryptamine receptor 5A (Homo sapiens) (UniProt P47898); conditions: Compound concentration 10.0 uM
[14] = molecular target: T2, Sodium-dependent dopamine transporter (Homo sapiens, UniProt Q01959); conditions: Compound concentration 10.0 uM
T2 sequence (Q01959 whole entry): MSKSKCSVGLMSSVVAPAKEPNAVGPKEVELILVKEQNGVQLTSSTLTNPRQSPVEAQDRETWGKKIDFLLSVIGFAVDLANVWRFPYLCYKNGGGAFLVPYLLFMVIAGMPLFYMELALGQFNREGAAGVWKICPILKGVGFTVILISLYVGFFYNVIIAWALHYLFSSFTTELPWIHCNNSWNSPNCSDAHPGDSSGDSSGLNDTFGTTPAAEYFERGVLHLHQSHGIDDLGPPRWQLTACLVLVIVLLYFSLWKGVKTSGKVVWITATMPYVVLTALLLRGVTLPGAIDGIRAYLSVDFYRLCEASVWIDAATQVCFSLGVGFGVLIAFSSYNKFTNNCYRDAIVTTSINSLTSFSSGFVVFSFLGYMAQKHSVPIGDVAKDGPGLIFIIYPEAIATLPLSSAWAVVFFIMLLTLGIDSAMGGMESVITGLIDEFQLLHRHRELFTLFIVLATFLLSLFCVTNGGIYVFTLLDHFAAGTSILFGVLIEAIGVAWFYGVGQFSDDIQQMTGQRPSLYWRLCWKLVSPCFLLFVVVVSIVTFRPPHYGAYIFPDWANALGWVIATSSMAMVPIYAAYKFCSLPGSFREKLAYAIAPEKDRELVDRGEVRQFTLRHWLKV

[15] = molecular target: Histamine H1 receptor (Homo sapiens) (UniProt P35367); conditions: Compound concentration 10.0 uM
[16] = molecular target: Alpha-1D adrenergic receptor (Homo sapiens) (UniProt P25100); conditions: Compound concentration 10.0 uM
[17] = molecular target: D(1B) dopamine receptor (Homo sapiens) (UniProt P21918); conditions: Compound concentration 10.0 uM
[18] = molecular target: Alpha-2B adrenergic receptor (Homo sapiens) (UniProt P18089); conditions: Compound concentration 10.0 uM
D(3) dopamine receptor [19] = molecular target: T1, D(3) dopamine receptor; test: GPCRScan assay: inhibition of D3; design: radioligand conc. used [nm] 0.5 – 1.8, parental cells HEKT
[20] = molecular target: 5-hydroxytryptamine receptor 2C (Homo sapiens) (UniProt P28335); conditions: Compound concentration 10.0 uM
Sequence of 5-hydroxytryptamine receptor 2C (Homo sapiens) (P28335 whole entry): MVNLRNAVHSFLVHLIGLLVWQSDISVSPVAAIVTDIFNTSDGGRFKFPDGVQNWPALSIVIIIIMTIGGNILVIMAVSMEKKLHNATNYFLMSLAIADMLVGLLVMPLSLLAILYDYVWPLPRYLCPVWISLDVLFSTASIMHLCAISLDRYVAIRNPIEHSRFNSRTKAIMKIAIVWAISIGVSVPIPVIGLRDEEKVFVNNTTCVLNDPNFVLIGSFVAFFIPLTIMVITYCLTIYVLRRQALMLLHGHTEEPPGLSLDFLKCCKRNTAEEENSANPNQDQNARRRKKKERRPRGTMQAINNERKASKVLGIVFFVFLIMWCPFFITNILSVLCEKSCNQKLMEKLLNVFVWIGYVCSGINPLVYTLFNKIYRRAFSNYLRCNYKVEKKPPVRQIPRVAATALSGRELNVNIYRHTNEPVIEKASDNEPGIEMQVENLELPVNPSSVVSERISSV

[21] = molecular target: Delta-type opioid receptor (Homo sapiens) (UniProt P41143); conditions: Compound concentration 10.0 uM
[22] = molecular target: Sigma non-opioid intracellular receptor 1 (Homo sapiens) (UniProt Q99720); conditions: Compound concentration 10.0 uM
[23] = molecular target: 5-hydroxytryptamine receptor 3A (Homo sapiens) (UniProt P46098); conditions: Compound concentration 10.0 uM
[24] = molecular target: Histamine H3 receptor (Homo sapiens) (UniProt Q9Y5N1); conditions: Compound concentration 10.0 uM
[25] = molecular target: Muscarinic acetylcholine receptor M5 (Homo sapiens) (UniProt P08912); conditions: Compound concentration 10.0 uM
[26] = molecular target: GABA-A receptor; anion channel (Rattus norvegicus) (UniProt O09028+P15431+P18506+P18508+P19969+P20236+P23574+P23576+P28471+P28473+P30191+P62813+P63079+P63138+Q91ZM7+Q9ES14); conditions: Compound concentration 10.0 uM
[27] = molecular target: Mu-type opioid receptor (Homo sapiens) (UniProt P35372); conditions: Compound concentration 10.0 uM
[28] = molecular target: D(2) dopamine receptor (Homo sapiens) (UniProt P14416); conditions: Compound concentration 10.0 uM
[29] = molecular target: D(1A) dopamine receptor (Homo sapiens) (UniProt P21728); conditions: Compound concentration 10.0 uM
[30] = molecular target: 5-hydroxytryptamine receptor 1A (Homo sapiens, UniProt P08908); test: GPCRScan assay: inhibition of 5-HT1A; design: radioligand conc. used [nm] 0.5 – 1.0, parental cells stable CHO
[31] = molecular target: T2, Sodium-dependent dopamine transporter; test: GPCRScan assay: inhibition of DAT; design: radioligand conc. used [nm] 3.6 – 16.0, parental cells stable HEK
[32] = molecular target: Casein kinase I isoform delta (Homo sapiens, UniProt P48730); test: BRET whole cell binding assay
[33] = molecular target: Kappa-type opioid receptor (Homo sapiens) (UniProt P41145); conditions: Compound concentration 10.0 uM
Sequence of Kappa-type opioid receptor (Homo sapiens) (P41145 whole entry): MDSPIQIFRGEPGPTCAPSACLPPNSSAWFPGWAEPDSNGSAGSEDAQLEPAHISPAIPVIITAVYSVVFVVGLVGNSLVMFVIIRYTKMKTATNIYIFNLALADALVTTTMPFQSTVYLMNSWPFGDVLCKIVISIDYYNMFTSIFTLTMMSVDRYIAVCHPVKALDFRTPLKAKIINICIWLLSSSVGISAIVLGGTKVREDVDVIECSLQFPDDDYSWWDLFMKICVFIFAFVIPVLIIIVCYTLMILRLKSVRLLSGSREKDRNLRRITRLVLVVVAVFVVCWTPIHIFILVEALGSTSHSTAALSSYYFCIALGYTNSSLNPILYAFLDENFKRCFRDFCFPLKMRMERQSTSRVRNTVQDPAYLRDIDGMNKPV

[34] = molecular target: Histamine H4 receptor (Homo sapiens) (UniProt Q9H3N8); conditions: Compound concentration 10.0 uM
[35] = molecular target: 5-hydroxytryptamine receptor 1D (Homo sapiens) (UniProt P28221); conditions: Compound concentration 10.0 uM
[36] = molecular target: Sodium-dependent serotonin transporter (Homo sapiens) (UniProt P31645); conditions: Compound concentration 10.0 uM
[37] = molecular target: Alpha-1B adrenergic receptor (Homo sapiens) (UniProt P35368); conditions: Compound concentration 10.0 uM
Sequence of Alpha-1B adrenergic receptor (Homo sapiens) (P35368 whole entry): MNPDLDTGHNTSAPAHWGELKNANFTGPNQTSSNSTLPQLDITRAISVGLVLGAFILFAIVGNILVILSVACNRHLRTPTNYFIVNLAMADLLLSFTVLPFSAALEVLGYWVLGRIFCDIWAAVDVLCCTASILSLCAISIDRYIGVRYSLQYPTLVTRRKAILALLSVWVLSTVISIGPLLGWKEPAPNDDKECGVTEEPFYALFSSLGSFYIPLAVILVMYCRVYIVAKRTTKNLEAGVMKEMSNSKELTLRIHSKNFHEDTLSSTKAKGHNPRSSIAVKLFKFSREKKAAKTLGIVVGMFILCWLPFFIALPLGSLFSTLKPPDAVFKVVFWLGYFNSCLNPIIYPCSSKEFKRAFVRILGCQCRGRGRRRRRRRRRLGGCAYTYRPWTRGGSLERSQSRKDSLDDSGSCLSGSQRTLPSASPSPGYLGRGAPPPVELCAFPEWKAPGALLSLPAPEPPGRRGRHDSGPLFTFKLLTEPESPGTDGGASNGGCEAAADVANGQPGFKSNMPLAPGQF

[38] = molecular target: Sodium-dependent noradrenaline transporter (Homo sapiens) (UniProt P23975); conditions: Compound concentration 10.0 uM
[39] = molecular target: 5-hydroxytryptamine receptor 2B (Homo sapiens) (UniProt P41595); conditions: Compound concentration 10.0 uM
[40] = molecular target: Beta-1 adrenergic receptor (Homo sapiens) (UniProt P08588); conditions: Compound concentration 10.0 uM
[41] = molecular target: 5-hydroxytryptamine receptor 1B (Homo sapiens) (UniProt P28222); conditions: Compound concentration 10.0 uM
[42] = molecular target: Histamine H2 receptor (Homo sapiens) (UniProt P25021); conditions: Compound concentration 10.0 uM
[43] = molecular target: 5-hydroxytryptamine receptor 7 (Homo sapiens) (UniProt P34969); conditions: Compound concentration 10.0 uM
[44] = molecular target: Serine/threonine-protein kinase DCLK2 (Homo sapiens, UniProt Q8N568); test: DCAMKL2(h) Kinase panel
TGF-beta receptor type-1 = TGF-beta receptor type-1 (Homo sapiens, UniProt P36897); test: TGFBR1(h) Kinase panel
Sequence of TGF-beta receptor type-1 (P36897 whole entry, canonical isoform): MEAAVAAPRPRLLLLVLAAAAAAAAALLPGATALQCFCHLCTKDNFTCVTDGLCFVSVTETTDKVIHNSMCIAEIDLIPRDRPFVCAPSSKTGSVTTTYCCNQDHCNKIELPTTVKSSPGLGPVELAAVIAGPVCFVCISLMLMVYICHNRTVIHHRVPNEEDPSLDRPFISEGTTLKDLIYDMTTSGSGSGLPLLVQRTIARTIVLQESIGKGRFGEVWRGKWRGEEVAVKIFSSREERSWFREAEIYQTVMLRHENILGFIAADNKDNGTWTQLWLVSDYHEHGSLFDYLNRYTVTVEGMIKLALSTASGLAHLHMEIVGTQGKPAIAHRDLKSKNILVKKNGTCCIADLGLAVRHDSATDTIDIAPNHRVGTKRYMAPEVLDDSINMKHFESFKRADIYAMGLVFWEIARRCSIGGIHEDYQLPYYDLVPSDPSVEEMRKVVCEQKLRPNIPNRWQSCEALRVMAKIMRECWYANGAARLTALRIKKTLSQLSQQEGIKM

[45] = molecular target: T3, Casein kinase I isoform epsilon (Homo sapiens, UniProt P49674); test: CK1epsilon(h) Kinase panel
T3 sequence (P49674 whole entry, canonical isoform): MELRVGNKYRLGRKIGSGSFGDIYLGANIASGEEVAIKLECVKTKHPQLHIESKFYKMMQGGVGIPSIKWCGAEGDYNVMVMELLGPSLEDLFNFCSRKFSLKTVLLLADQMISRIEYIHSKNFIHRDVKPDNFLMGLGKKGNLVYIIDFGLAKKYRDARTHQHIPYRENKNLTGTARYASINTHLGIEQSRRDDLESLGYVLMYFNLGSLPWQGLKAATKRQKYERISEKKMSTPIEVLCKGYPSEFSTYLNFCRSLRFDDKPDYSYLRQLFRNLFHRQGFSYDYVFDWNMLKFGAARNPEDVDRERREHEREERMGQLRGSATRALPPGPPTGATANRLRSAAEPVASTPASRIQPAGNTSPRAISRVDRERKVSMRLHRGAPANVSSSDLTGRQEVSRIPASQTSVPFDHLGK

[46] = molecular target: Serine/threonine-protein kinase 38-like (Homo sapiens, UniProt Q9Y2H1); test: NDR2(h) Kinase panel
[47] = molecular target: 5'-AMP-activated protein kinase catalytic subunit alpha-2 (Homo sapiens, UniProt P54646); test: AMPKalpha2(h) Kinase panel
[48] = molecular target: Macrophage colony-stimulating factor 1 receptor (Homo sapiens, UniProt P07333); test: Fms(h) Kinase panel
Sequence of Macrophage colony-stimulating factor 1 receptor (P07333 whole entry): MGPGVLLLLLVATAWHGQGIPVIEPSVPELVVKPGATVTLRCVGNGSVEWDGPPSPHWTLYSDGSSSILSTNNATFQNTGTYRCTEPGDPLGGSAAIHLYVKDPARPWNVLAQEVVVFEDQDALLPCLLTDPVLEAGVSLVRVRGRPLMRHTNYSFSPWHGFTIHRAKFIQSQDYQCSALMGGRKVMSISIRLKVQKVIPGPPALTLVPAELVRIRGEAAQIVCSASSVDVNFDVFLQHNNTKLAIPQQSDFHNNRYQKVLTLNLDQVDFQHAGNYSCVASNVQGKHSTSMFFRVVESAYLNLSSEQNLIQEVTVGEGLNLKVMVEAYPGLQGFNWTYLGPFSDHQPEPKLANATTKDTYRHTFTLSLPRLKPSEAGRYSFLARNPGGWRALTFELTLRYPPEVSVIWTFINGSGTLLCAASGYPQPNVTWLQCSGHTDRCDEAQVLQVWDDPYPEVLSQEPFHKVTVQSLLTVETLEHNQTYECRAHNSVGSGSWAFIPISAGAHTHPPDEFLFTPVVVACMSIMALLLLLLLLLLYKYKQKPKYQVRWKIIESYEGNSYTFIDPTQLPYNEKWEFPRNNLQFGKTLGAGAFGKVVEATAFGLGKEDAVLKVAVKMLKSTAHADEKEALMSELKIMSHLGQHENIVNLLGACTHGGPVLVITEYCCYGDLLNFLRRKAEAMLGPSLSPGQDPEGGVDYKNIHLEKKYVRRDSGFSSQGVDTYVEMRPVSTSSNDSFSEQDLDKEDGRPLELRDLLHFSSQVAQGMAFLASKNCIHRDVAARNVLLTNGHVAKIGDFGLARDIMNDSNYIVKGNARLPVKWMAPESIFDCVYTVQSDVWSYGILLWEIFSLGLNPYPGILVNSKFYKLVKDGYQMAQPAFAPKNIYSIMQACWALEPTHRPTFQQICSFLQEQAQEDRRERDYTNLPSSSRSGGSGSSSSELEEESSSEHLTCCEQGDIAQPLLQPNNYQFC

[49] = molecular target: Mitogen-activated protein kinase 11 (Homo sapiens, UniProt Q15759); test: SAPK2b(h) Kinase panel
[50] = GPCRScan assay: inhibition of GABA/PBR; design: species or system Rattus norvegicus; radioligand conc. used [nm] 0.3 – 2.0, parental cells brain tissue
[51] = molecular target: Casein kinase I isoform alpha (Homo sapiens, UniProt P48729); test: CK1alpha(h) Kinase panel
[52] = molecular target: TRAF2 and NCK-interacting protein kinase (Homo sapiens, UniProt Q9UKE5); test: TNIK(h) Kinase panel
[53] = molecular target: T3, Casein kinase I isoform epsilon; test: ADP-Glo
[54] = molecular target: Mitogen-activated protein kinase 14 (Homo sapiens, UniProt Q16539); test: SAPK2a(h) Kinase panel

inhibition [1]: 11% | inhibition [2]: 0.72% | inhibition [3]: 0.96% | inhibition (D(3) dopamine receptor [4]): 71% | inhibition [5]: 12.3% | inhibition [6]: -5.28% | inhibition [7]: 14.2% | inhibition [8]: 0.71% | inhibition [9]: -5.08% | inhibition [10]: 48.1% | inhibition [11]: -2.71% | inhibition [12]: 19.6% | inhibition [13]: 5.31% | inhibition [14]: 72.5% | inhibition [15]: 12.5% | inhibition [16]: 12.7% | inhibition [17]: 3.57% | inhibition [18]: 9.43% | Ki (D(3) dopamine receptor [19]): 8.63 µM | inhibition [20]: 2.17% | inhibition [21]: -4.05% | inhibition [22]: 13% | inhibition [23]: 1.67% | inhibition [24]: -2.3% | inhibition [25]: 12.5% | inhibition [26]: 18.2% | inhibition [27]: -0.34% | inhibition [28]: 16.9% | inhibition [29]: 5.63% | Ki [30]: 7.66 µM | Ki ([31]; read-out: Ki): 7.22 µM | Ki ([31]; read-out: pKi (converted)): 7.24 µM | IC50 [32]: > 10 µM (not active) | inhibition [33]: 5.15% | inhibition [34]: 31.6% | inhibition [35]: 11.3% | inhibition [36]: -2.06% | inhibition [37]: 35.2% | inhibition [38]: 3.24% | inhibition [39]: 9.41% | inhibition [40]: 14.9% | inhibition [41]: 3.69% | inhibition [42]: -7.88% | inhibition [43]: 2.11%
SMILES: Cn1cc2c(-c3c(-c4ccc(F)cn4)nn4c3COC(C)(C)C4)ccnc2n1

IC50 [44]: > 10 µM | IC50 (TGF-beta receptor type-1): > 10 µM | IC50 [45]: 137 nM | IC50 [46]: > 10 µM | IC50 [47]: > 10 µM | IC50 [48]: > 10 µM | IC50 [49]: > 10 µM | Ki [50]: 4.53 µM | pKi [50]: 5.34 | IC50 [51]: 419 nM | IC50 [52]: 1700 nM | IC50 [53]: 137 nM (active) | IC50 [54]: > 10 µM
SMILES: [2H]C([2H])([2H])C1(C([2H])([2H])[2H])Cn2nc(-c3ccc(F)cn3)c(-c3ccnc4[nH]ncc34)c2CO1
